Measurements: patent publication US9241976B2, “Use of HDL-related molecules to treat and prevent proinflammatory conditions” (THE REGENTS OF THE UNIVERSITY OF CALIFORNIA, priority 2011, dated 2016)

Legend:
HIF-1α = experiment: Hypoxia response element (HRE) luciferase reporter assay in OV2008 cells; type: cell-based, human
Method: In brief, OV2008 cells were plated at 2×10^5 cells per well in a six-well plate and grown in complete media overnight. Then, pGL3-Epo-hypoxia response element (HRE)-Luc plasmid was transfected into cells by using Lipofectamine 2000 (Invitrogen). After 24 h, cells were starved overnight and subjected to L-4F treatment in the presence or absence of stimulators. A reporter assay system (Promega, Madison, Wis.) was used for the measurement of luciferase activity.

[1] = system: VEGF, glucose transporter 1, and aldolase-A; experiment: HIF-1α target gene mRNA, real-time RT-PCR in OV2008 cells; type: cell-based, human; conditions: 10 μg/ml pretreatment 1 h
Method: (§1) Total RNA was extracted from cells by using a PureLink RNA Mini Kit (Invitrogen). The quantity and quality of RNA were assessed by using a SmartSpec 3000 Spectrophotometer (Bio-Rad Laboratories, Hercules, Calif.). cDNA was synthesized by using the High Capacity cDNA Reverse Transcription Kit (Applied Biosystems, Foster City, Calif.) according to the manufacturer's instructions. PCRs were performed by using the CFX96 realtime PCR system (Applied Biosystems). The cycling conditions were as follows: 3 min at 95° C. followed by 40 cycles of 95° C., 10 s; 60° C., 10 s; 72° C., 30 s followed by a final extension at 72° C. for 10 min. Each 25-μl reaction contained 0.4 μg of cDNA, 12.5 μl of SYBR Green qPCR SuperMix (Bio-Rad Laboratories), and 250 nM forward and reverse primers in nuclease-free water. […]

CT26 cells [2] = experiment: Cell-cycle analysis of CT26 cells by flow cytometry; type: cell-based, mouse; parameters: dose or concentration left out as unconfirmed; conditions: 48 hours
Method: CT26 cells were cultured in 6-well plates overnight and then serum starved for 48 hours. […] Cells were collected, washed with PBS, and fixed with 70% ice-cold methanol overnight at 4° C. The fixed cells were collected by centrifugation, washed with PBS, and resuspended in 0.3 mL of PBS containing […] RNaseA and […] propidium iodide, and subjected to flow cytometric cell-cycle analysis by FACScan from BD Biosciences.

CT26 cells [3] = conditions: BALB/c, mouse, 48 hours
Method: CT26 cell line derived from N-nitroso-N-methyl urethane-induced mouse colon carcinoma of BALB/c origin was purchased from the American Type Culture Collection (ATCC). CT26 cells (2,000 cells per well) were first cultured in complete medium in 96-well culture plates, and 24 hours later the medium was replaced with serum free medium. Following an overnight incubation, the cells were either treated with vehicle (control), or treated with 10 μg/mL of either bHDL. The bHDL were dissolved in H2O. Cells were incubated for an additional 48 hours and assayed for viability using the MTS assays kit (Promega) according to the manufacturer's protocol.
CT26 cell line derived from N-nitroso-N-methyl urethane-induced mouse colon carcinoma of BALB/c origin was purchased from the American Type Culture Collection. CT26 cells (2,000 cells per well) were first cultured in complete medium in 96-well culture plates, and 24 hours later the medium was replaced with serum-free medium. Following an overnight incubation, the cells were either treated with vehicle (control) or treated with 10 mg/mL of either L-4F or G* peptide. The peptides were dissolved in H2O. Cells were incubated for an additional 48 hours and assayed for viability using the MTS assay kit (Promega) according to the manufacturer's protocol.

Akt = experiment: Insulin-stimulated phosphorylation of Akt in OV2008 cells, Western blot; type: cell-based, human; conditions: 10 μg/ml, insulin 200 nM
Method: FIGS. 10A-10B. Effect of L-4F on the insulin-stimulated activation of downstream signaling molecules in OV2008 cells. After an overnight starvation, OV2008 cells were treated with L-4F (10 μg/ml) for 1 h, and insulin was added at a final concentration of 200 nM. Cell lysates were collected at various time points and subjected to Western blot analysis. FIG. 10A, L-4F inhibits insulin-stimulated phosphorylation of p70s6 kinase and subsequent HIF-1α expression in OV2008 cells. FIG. 10B, effect of L-4F on insulinstimulated phosphorylation of ERK1/2 and Akt in OV2008 cells.
Western blot analyses were performed as described previously (Gao et al., 2011). In brief, cell lysates were collected in a lysis buffer containing 0.1 MNaCl, 5 mM EDTA, 50 μM sodium orthovanadate, 1% Triton X-100, and protease inhibitor tablet (Roche Diagnostics, Indianapolis, Ind.) in 50 mM Tris buffer, pH 7.5, loaded onto 4 to 12% Bis-Tris gel (Invitrogen), transferred to polyvinylidene difluoride membrane, and incubated with the appropriate antibodies. […]

CT26 cells [4] = experiment: CT26 proliferation assay (BrdU incorporation); type: cell-based, mouse; conditions: Example 5; 10 mg/mL, 48 hours
Method: The bHDL were dissolved in H2O.
The peptides were dissolved in H2O.

IL-6 = experiment: Plasma IL-6 ELISA; type: in vivo, mouse; conditions: lung tumor mice; 10 mg/kg/d subcutaneously for 3 weeks; vs control group
Method: Interleukin (IL)-6 concentrations were measured in plasma by a competition ELISA according to the manufacture's protocol (Invitrogen).

[5] = system: mouse ovarian cancer cells (ID-8 cells); conditions: reference (17); cited from earlier work
ROS = experiment: Cellular reactive oxygen species, dichlorofluorescein oxidation assay in OV2008 cells; type: cell-based, human; conditions: 10 μg/ml pretreatment 1 h
Method: As described previously (Zhou et al., 2007; Lee et al., 2009), OV2008 cells were plated onto a glass slip (Thermo Fisher Scientific) in a 24-well plate at 4×10^4 cells per well, cultured overnight in normal cultured condition, starved in serum-free media overnight, and treated with L-4F (10 μg/ml) for 1 h. Then, dichlorofluorescein diacetate (DCFHDA, 10 μM) and insulin (200 nM)/CoCl2 (100 μM) were added and incubated with the cells for an additional 0.5 h. The cells were washed twice with phosphate-buffered saline (PBS). The images were captured with a fluorescence microscope (Olympus IX70; Olympus, Tokyo, Japan).

HIF-1α mRNA = experiment: HIF-1α mRNA, real-time RT-PCR; type: cell-based, human
Method: as §1

## Ac-DWFKAFYDKVAEKFKEAF-NH2 [L-4F, Ac-D-W-F-K-A-F-Y-D-K-V-A-E-K-F-K-E-A-F-NH2]
HIF-1α; OV2008 cells stimulated first with CoCl2 or insulin, 10 μg/ml
  transcription of downstream HIF-1α target genes (HRE reporter), post-treatment: inhibition of the transcription
HIF-1α; OV2008 cells, 10 μg/ml pretreatment 1 h
  CoCl2- and insulin-mediated induction of HRE luciferase activity: significantly inhibited
[1]
  CoCl2- and insulin-induced increase in mRNA levels of HIF-1α target genes: abrogated
CT26 cells [2]
  cell-cycle profile: induced an increase in G0/G1 phase and arrest in S phase
CT26 cells [3]; 10 μg/mL
  Cell viability reduced by, compared with control: more than 20%
CT26 cells [3]; 10 mg/mL
  Cell viability reduced, compared with control: more than 25%
Akt
  insulin-stimulated phosphorylation of Akt: no effect on the phosphorylation of Akt, except at 0.5 h
CT26 cells [4]
  proliferation of CT26 cells, BrdUrd incorporation: significantly inhibited
IL-6
  IL-6 levels in plasma: significantly decreased
[5]
  viability and proliferation: reduced
ROS
  cellular ROS production induced by insulin and CoCl2: dramatically prevented
HIF-1α mRNA
  basal level of HIF-1α mRNA: no effect
